Results taken from patent publication US8933019B2, “Antiviral cell-penetrating peptides” (priority 2008, dated 2015).
Where two headings read alike, the source gives them in different places. Bridge positions count the residues as written; N and C are the ends. Square brackets hold non-standard residues; d marks the D form. Peptide text beside a SMILES is read from it. S5 = C=CCCC[C@](C)(N)C(=O)O

Legend:
[1] = Cytotoxicity, XTT method, MT-2 cells; type: cell-based, human; conditions: human, read-out: CC50 (μM) ± SD, cytotoxicity in MT-2 cells
Method: (§1) Cytotoxicity of peptides in MT-2 cells and PBMC was measured by the XTT [(sodium 3′-(1-(phenylamino)-carbonyl)-3,4-tetrazolium-bis(4-methoxy-6-nitro) bezenesulfonic acid hydrate)] method as previously described (Jiang et al., 2004). Briefly, for MT-2 cells, 100 μl of a peptide at graded concentrations was added to an equal volume of cells (1×10^5 cells/ml) in 96-well plates followed by incubation at 37° C. for 4 days, which ran parallel to the neutralization assay in MT-2 (except medium was added instead of virus). In the case of PBMC, 5×10^5 cells/ml were used and the cytotoxicity was measured after 7 days. After addition of XTT (PolySciences, Inc.), the soluble intracellular formazan was quantitated colorimetrically at 450 nm 4 hr later with a reference at 620 nm. The percent of cytotoxicity and the CC50 values were calculated as above (Table 2 and Table 3).

[2] = Solubility, observation in the Jurkat cytotoxicity test; type: physicochemical
Method: (§2) Cytotoxicity was also evaluated in Jurkat cells using a Promega LDH leakage detection kit. Jurkat cells were plated at 10^4 cells/well in a volume of 200 μl. The test was performed after 30 min, 2 hr and 4 hr of exposure to the NYAD-201, NYAD-202 and NYAD-203 compounds.

HIV-1 89.6 = type: cell-based; conditions: laboratory strain, subtype B, PBMC, coreceptor R5X4; read-out: IC50 (μM ± SD), HIV-1 89.6
Method: (§3) The inhibitory activity of peptides on infection by primary HIV-1 isolates was determined as previously described (Jiang et al., Antimicrob. Agents Chemother. 48:4349-4359, 2004). Peripheral blood mononuclear cells (PBMCs) were isolated from the blood of healthy donors at the New York Blood Center by standard density gradient centrifugation using Histopaque-1077 (Sigma-Aldrich). The cells were cultured at 37° C. for 2 hr. Nonadherent cells were collected and resuspended at 5×10^6 cells/ml RPMI-1640 medium containing 10% FBS, 5 μg/ml PHA, and 100 U/ml IL-2 (Sigma-Aldrich), followed by incubation at 37° C. for 3 days. The PHA-stimulated cells (5×10^4 cells/well) were infected with primary HIV-1 isolates at 500 TCID50 (0.01 MOI) in the absence or presence of peptide inhibitor at graded concentrations. Culture media were changed every 3 days and replaced with fresh media containing freshly prepared inhibitor. The supernatants were collected 7 days post-infection and tested for p24 antigen by ELISA (FIG. 6). The percent inhibition of p24 production, IC50 and IC90 values were calculated by the GraphPad Prism software (GraphPad Software Inc.).
(§4) In addition, NYAD-201, NYAD-202 and NYAD-203 were also tested using several laboratory-adapted and primary isolates in MT-2 cells and PBMC (peripheral blood mononuclear cells), respectively. The inhibition of p24 production in MT-2 cells by NYAD-201 and its analogs were measured over a range of concentrations and the concentration required to inhibit 50% (IC50) of the p24 production was calculated. […] NYAD-201 and its analogs inhibited the laboratory strains with low μM potency (IC50˜2-8 μM), and both R5- and X4-tropic viruses were inhibited with similar potency.

HIV-1 BaL = type: cell-based; conditions: laboratory strain, subtype B, PBMC, coreceptor R5; read-out: IC50 (μM ± SD), HIV-1 BaL
Method: as §3, §4

HIV-1 RF = conditions: read-out: IC50 (μM ± SD), HIV-1 RF; laboratory strain, subtype B, MT-2, coreceptor X4
Method: (§5) The inhibitory activity of NYAD-201, and related stapled peptides on infection by laboratory-adapted HIV-1 strains was determined as previously described (Jiang et al. J Exp. Med 174:1557-1563, 1991) with minor modifications. Azidothymidine (AZT) was used as a positive control in the infectivity assays. In brief, 1×10^4 MT-2 cells were infected with HIV-1 at 100 TCID50 (50% tissue culture infective dose) (0.01 MOI [multiplicity of infection]) in 200 μl RPMI 1640 medium containing 10% FBS in the presence or absence of peptides at graded concentrations overnight. The culture supernatants were then removed and fresh media containing freshly prepared test peptide were added. On the fourth day post-infection, 100 μl of culture supernatants were collected from each well, mixed with equal volume of 5% Triton X-100 and tested for p24 antigen by ELISA.
(§6) In addition, NYAD-201, NYAD-202 and NYAD-203 were also tested using several laboratory-adapted and primary isolates in MT-2 cells and PBMC (peripheral blood mononuclear cells), respectively.

HIV-1 IIIB = tested on: HIV-1 IIIB
Method: as §5, §6

HIV-1 MN = conditions: read-out: IC50 (μM ± SD), HIV-1 MN; laboratory strain, subtype B, MT-2, coreceptor X4
Method: as §5, §6

HIV-1RF/L-323-12-3 = conditions: read-out: IC50 (μM ± SD), HIV-1RF/L-323-12-3; PR-resistant isolate, subtype B, MT-2, coreceptor X4
Method: as §5, §6

HIV-1 SF2 = conditions: read-out: IC50 (μM ± SD), HIV-1 SF2; laboratory strain, subtype B, MT-2, coreceptor R5X4
Method: as §5, §6

HIV-1 AZT-R = conditions: read-out: IC50 (μM ± SD), HIV-1 AZT-R; RT-resistant isolate, subtype B, MT-2, coreceptor X4
Method: as §5, §6

HIV-1 93BR020 = test: Inhibition of primary HIV-1 isolate, p24 ELISA, PBMC; type: cell-based; conditions: subtype F, coreceptor R5X4, read-out: IC50 (μM ± SD), HIV-1 93BR020
Method: as §3
(§7) NYAD-201, NYAD-202 and NYAD-203 were also tested against a set of primary HIV-1 isolates in PBMC representing mostly group M and one from group O with diverse coreceptor usage. […] The inhibitory activities of the peptides against this diverse range of primary isolates were similar, indicating its effectiveness against a wide range of HIV-1 isolates.

HIV-1 92US657 = test: as above; type: cell-based; conditions: subtype B, coreceptor R5, read-out: IC50 (μM ± SD), HIV-1 92US657
Method: as §3, §7

HIV-1 98CN009 = test: as above; type: cell-based; conditions: subtype C, coreceptor R5, read-out: IC50 (μM ± SD), HIV-1 98CN009
Method: as §3, §7

HIV-1 BCF02 = test: as above; type: cell-based; conditions: (Group 0), coreceptor R5, read-out: IC50 (μM ± SD), HIV-1 BCF02
Method: as §3, §7

HIV-1 93RW024 = test: as above; type: cell-based; conditions: subtype A, coreceptor R5X4, read-out: IC50 (μM ± SD), HIV-1 93RW024
Method: as §3, §7

HIV-1 CMU02 = test: as above; type: cell-based; conditions: subtype EA, coreceptor X4, read-out: IC50 (μM ± SD), HIV-1 CMU02
Method: as §3, §7

HIV-1 93IN101 = test: as above; type: cell-based; conditions: subtype C, coreceptor R5, read-out: IC50 (μM ± SD), HIV-1 93IN101
Method: as §3, §7

HIV-1 92UG029 = test: as above; type: cell-based; conditions: subtype A, coreceptor X4, read-out: IC50 (μM ± SD), HIV-1 92UG029
Method: as §3, §7

HIV-1 RU570 = test: as above; type: cell-based; conditions: subtype G, coreceptor R5, read-out: IC50 (μM ± SD), HIV-1 RU570
Method: as §3, §7

Jurkat cells = test: Cytotoxicity, LDH leakage, Jurkat cells; type: cell-based; conditions: 30 min, 2 hr and 4 hr of exposure
Method: as §2

[3] = Cytotoxicity, XTT method, PBMC; type: cell-based; conditions: human
Method: as §1

SMILES: CSCC[C@@H]1NC(=O)[C@H](Cc2c[nH]c3ccccc23)NC(=O)[C@@](C)(NC(=O)[C@H](CCCCN)NC(=O)[C@@H](NC(=O)[C@H](C)NC(=O)[C@H](CCC(N)=O)NC(=O)[C@H](C)N)C(C)C)CCCC=CCCC[C@@](C)(C(=O)N[C@H](C(=O)N[C@@H](CC(C)C)C(=O)N[C@@H](CC(C)C)C(=O)N[C@H](C(=O)N[C@@H](C)C(N)=O)C(C)C)[C@@H](C)O)NC(=O)[C@H]([C@@H](C)O)NC1=O [NYAD-202, AQAVKXWMTXTLLVA] (H-AQAVK[S5]WMT[S5]TLLVA-NH2; staple 6-10)
- CC50 at 4 days [1]: 30.2 ± 4.32 µM
- Solubility [2]: not very soluble
- IC50 (HIV-1 89.6): 3.47 ± 0.22 µM
- IC50 (HIV-1 BaL): 2.23 ± 0.44 µM
- IC50 (HIV-1 RF): 2.64 ± 0.39 µM
- IC50 (HIV-1 IIIB; read-out: IC50 (μM ± SD), HIV-1 IIIB, laboratory strain, subtype B, MT-2, coreceptor X4): 2.36 ± 0.33 µM
- IC50 (HIV-1 IIIB; read-out: IC50 (μM) ± SD, antiviral activity against HIV-1 IIIB, MT-2 cells, p24 production, fourth day post-infection): 2.36 ± 0.33 µM
- IC50 (HIV-1 MN): 2.47 ± 0.71 µM
- IC50 (HIV-1RF/L-323-12-3): 3.5 ± 0.6 µM
- IC50 (HIV-1 SF2): 4.48 ± 0.84 µM
- IC50 (HIV-1 AZT-R): 4.53 ± 1.19 µM
- IC50 (HIV-1 93BR020): 2.51 ± 0.43 µM
- IC50 (HIV-1 92US657): 3.61 ± 0.57 µM
- IC50 (HIV-1 98CN009): 4.08 ± 0.92 µM
- IC50 (HIV-1 BCF02): 6.2 ± 1.2 µM
- IC50 (HIV-1 93RW024): 3.71 ± 0.19 µM
- IC50 (HIV-1 CMU02): 4.2 ± 0.01 µM
- IC50 (HIV-1 93IN101): 5.53 ± 0.39 µM
- IC50 (HIV-1 92UG029): 3.97 ± 0.47 µM
- IC50 (HIV-1 RU570): 6.34 ± 2.22 µM
- Cytotoxicity in Jurkat cells (LDH leakage) (Jurkat cells): did not demonstrate toxicity
- CC50 at 7 days [3]: > 116 µM
